Test results from patent publication US20240368118A1, “CEREBLON BINDING COMPOUNDS, COMPOSITIONS THEREOF, AND METHODS OF TREATMENT THEREWITH” (CELGENE CORPORATION, priority 2021, published 2024).
Structures can show the parent of a compound that is named as a salt.

Target: T1, AR (Homo sapiens, UniProt P10275)
T1 construct: endogenous in cells; host or cells: VCaP cells
T1 sequence (P10275 1-920): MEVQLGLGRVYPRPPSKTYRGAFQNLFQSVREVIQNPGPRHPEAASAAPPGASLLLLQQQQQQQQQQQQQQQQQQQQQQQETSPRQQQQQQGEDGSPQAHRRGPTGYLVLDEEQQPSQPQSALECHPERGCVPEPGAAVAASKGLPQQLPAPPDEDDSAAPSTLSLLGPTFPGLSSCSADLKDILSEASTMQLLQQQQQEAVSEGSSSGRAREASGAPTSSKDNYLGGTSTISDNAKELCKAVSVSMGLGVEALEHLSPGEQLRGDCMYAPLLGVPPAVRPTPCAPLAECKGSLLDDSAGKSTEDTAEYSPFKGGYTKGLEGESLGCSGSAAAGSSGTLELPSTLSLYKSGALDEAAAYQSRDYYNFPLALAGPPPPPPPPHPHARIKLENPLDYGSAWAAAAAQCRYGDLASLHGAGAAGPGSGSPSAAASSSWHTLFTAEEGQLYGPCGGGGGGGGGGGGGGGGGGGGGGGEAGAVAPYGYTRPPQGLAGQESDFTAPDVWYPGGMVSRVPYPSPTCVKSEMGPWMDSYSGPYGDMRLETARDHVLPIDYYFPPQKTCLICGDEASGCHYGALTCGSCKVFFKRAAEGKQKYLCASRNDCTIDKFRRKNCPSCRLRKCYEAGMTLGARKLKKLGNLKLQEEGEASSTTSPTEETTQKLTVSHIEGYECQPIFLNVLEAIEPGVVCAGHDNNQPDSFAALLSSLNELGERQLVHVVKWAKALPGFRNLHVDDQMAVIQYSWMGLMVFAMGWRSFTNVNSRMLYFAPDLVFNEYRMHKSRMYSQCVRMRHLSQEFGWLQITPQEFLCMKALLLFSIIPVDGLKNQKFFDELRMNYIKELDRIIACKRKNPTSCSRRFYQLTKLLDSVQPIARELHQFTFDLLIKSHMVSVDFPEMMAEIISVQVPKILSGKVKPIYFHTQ
Test: VCAP AR Degradation Assay
Type: cell-based
Details: VCaP cells, 24 h; for DC50: AR ELISA, concentration when AR level = 50% of DMSO control; for Ymin: lowest AR level normalized to DMSO control, class symbols
Procedure: VCAP AR Degradation Assay. Test compounds were pre-dispensed into a Corning CellBind 96-well clear bottom plate (Cat #3300) using an acoustic dispenser to make a 10-point concentration series at 1:3 dilution for each compound. The final top concentration of each compound was 5 μM. DMSO at a final concentration of 0.1% was used as a control. VCaP cells cultured in DMEM with 8% fetal bovine serum (FBS) were seeded at 50K cells per well in a 200 μL volume into the compound plate and incubated at 37° C. in a C02 incubator for 24 h. The medium was carefully removed from the cells and the plate was placed on ice. One hundred μL of ice-cold 1× cell lysis buffer from Cell Signaling Technologies (Cat #9803) was added to each well of the cells and the plate was incubated at 4° C. on a shaker for 1 h. Fifteen μL of cell lysate was used for AR ELISA detection using a PathScan Total Sandwich AR ELISA kit (Cell Signaling Technology, Cat #12580). AR levels in compound-treated wells were normalized to that of DMSO control and expressed as percent of control (PoC) (y). A Four Parameter Logistic Model (Sigmoidal Dose-Response Model) was used to determine the compound's DC50, and EC50, using the following equation: […]
The lowest measured AR level normalized to DMSO control in response to compound treatment, termed Y value, was used to characterize the compound-mediated AR degradation efficiency.

Compound	DC50 [nM]	Ymin
C[C@@H]1CN(CCO[C@H]2CC[C@H](N3C(=S)N(c4ccc(C#N)c(C(F)(F)F)c4)C(=O)C3(C)C)CC2)C[C@H](C)N1CC(=O)Nc1ccc(C2(C)CCC(=O)NC2=O)cc1 (single isomer, unassigned) [Cmpd 9, hydrochloride]	100 to 10000	*** (30%<Y<80%)
C[C@@H]1CN(CCO[C@H]2CC[C@H](N3C(=S)N(c4ccc(C#N)c(C(F)(F)F)c4)C(=O)C3(C)C)CC2)C[C@H](C)N1CC(=O)Nc1ccc(C2(C)CCC(=O)NC2=O)cc1 (single isomer, unassigned) [Cmpd 10, hydrochloride]	100 to 10000	*** (30%<Y<80%)
C[C@@H]1CN(CCO[C@H]2CC[C@H](N3C(=S)N(c4ccc(C#N)c(C(F)(F)F)c4)C(=O)C3(C)C)CC2)C[C@H](C)N1CC(=O)Nc1ccc(N2CCC(=O)NC2=O)cc1 [Cmpd 1, 2-((2S,6R)-4-(2-((trans-4-(3-(4-Cyano-3-(trifluoromethyl)phenyl)-5,5-dimethyl-4-oxo-2-thioxoimidazolidin-1-yl)cyclohexyl)oxy)ethyl)-2,6-dimethylpiperazin-1-yl)-N-(4-(2,4-dioxotetrahydropyrimidin-1(2H)-yl)phenyl)acetamide hydrochloride]	100 to 10000	*** (30%<Y<80%)
C[C@@H]1CN(CCO[C@H]2CC[C@H](N3C(=S)N(c4ccc(C#N)c(C(F)(F)F)c4)C(=O)C3(C)C)CC2)C[C@H](C)N1CC(=O)Nc1ccc(C2CCC(=O)NC2=O)cc1 (stereo partly drawn) [Cmpd 2, 2-((2S,6R)-4-(2-((trans-4-(3-(4-Cyano-3-(trifluoromethyl)phenyl)-5,5-dimethyl-4-oxo-2-thioxoimidazolidin-1-yl)cyclohexyl)oxy)ethyl)-2,6-dimethylpiperazin-1-yl)-N-(4-(2,6-dioxopiperidin-3-yl)phenyl)acetamide hydrochloride]	5 to 15	*** (30%<Y<80%)
C[C@@H]1CN(CCC[C@H]2CC[C@H](N3C(=S)N(c4ccc(C#N)c(C(F)(F)F)c4)C(=O)C3(C)C)CC2)C[C@H](C)N1CC(=O)Nc1ccc(C2CCC(=O)NC2=O)cc1 (stereo partly drawn) [Cmpd 3, 2-((2R,6S)-4-(3-(trans-4-(3-(4-Cyano-3-(trifluoromethyl)phenyl)-5,5-dimethyl-4-oxo-2-thioxoimidazolidin-1-yl)cyclohexyl)propyl)-2,6-dimethylpiperazin-1-yl)-N-(4-(2,6-dioxopiperidin-3-yl)phenyl)acetamide hydrochloride]	5 to 15	** (20%<Y≤30%)
C[C@@H]1CN(CCO[C@H]2CC[C@H](N3C(=S)N(c4ccc(C#N)c(Cl)c4)C(=O)C3(C)C)CC2)C[C@H](C)N1CC(=O)Nc1ccc(C2CCC(=O)NC2=O)cc1 (stereo partly drawn) [Cmpd 4, 2-((2R,6S)-4-(2-((trans-4-(3-(3-Chloro-4-cyanophenyl)-5,5-dimethyl-4-oxo-2-thioxoimidazolidin-1-yl)cyclohexyl)oxy)ethyl)-2,6-dimethylpiperazin-1-yl)-N-(4-(2,6-dioxopiperidin-3-yl)phenyl)acetamide hydrochloride]	≤ 5	*** (30%<Y<80%)
C[C@@H]1CN(CCO[C@H]2CC[C@H](N3C(=S)N(c4ccc(C#N)c(C(F)(F)F)c4)C(=O)C3(C)C)CC2)C[C@H](C)N1CCC(=O)Nc1ccc(C2CCC(=O)NC2=O)cc1 (stereo partly drawn) [Cmpd 5, 3-((2R,6S)-4-(2-((trans-4-(3-(4-Cyano-3-(trifluoromethyl)phenyl)-5,5-dimethyl-4-oxo-2-thioxoimidazolidin-1-yl)cyclohexyl)oxy)ethyl)-2,6-dimethylpiperazin-1-yl)-N-(4-(2,6-dioxopiperidin-3-yl)phenyl)propanamide]	5 to 15	*** (30%<Y<80%)
C[C@@H]1CN(CCO[C@H]2CC[C@H](N3C(=S)N(c4cnc(C#N)c(C(F)(F)F)c4)C(=O)C3(C)C)CC2)C[C@H](C)N1CC(=O)Nc1ccc(C2CCC(=O)NC2=O)cc1 (stereo partly drawn) [Cmpd 6, 2-((2R,6S)-4-(2-((trans-4-(3-(6-Cyano-5-(trifluoromethyl)pyridin-3-yl)-5,5-dimethyl-4-oxo-2-thioxoimidazolidin-1-yl)cyclohexyl)oxy)ethyl)-2,6-dimethylpiperazin-1-yl)-N-(4-(2,6-dioxopiperidin-3-yl)phenyl)acetamide hydrochloride]	≤ 5	*** (30%<Y<80%)
CC[C@]1(c2ccc(NC(=O)CN3[C@H](C)CN(CCO[C@H]4CC[C@H](N5C(=S)N(c6ccc(C#N)c(C(F)(F)F)c6)C(=O)C5(C)C)CC4)C[C@@H]3C)cc2)CCC(=O)NC1=O [Cmpd 7, 2-((2S,6R)-4-(2-((trans-4-(3-(4-Cyano-3-(trifluoromethyl)phenyl)-5,5-dimethyl-4-oxo-2-thioxoimidazolidin-1-yl)cyclohexyl)oxy)ethyl)-2,6-dimethylpiperazin-1-yl)-N-(4-((R)-3-ethyl-2,6-dioxopiperidin-3-yl)phenyl)acetamide hydrochloride]	100 to 10000	*** (30%<Y<80%)
CC[C@@]1(c2ccc(NC(=O)CN3[C@H](C)CN(CCO[C@H]4CC[C@H](N5C(=S)N(c6ccc(C#N)c(C(F)(F)F)c6)C(=O)C5(C)C)CC4)C[C@@H]3C)cc2)CCC(=O)NC1=O [Cmpd 8, 2-((2S,6R)-4-(2-((trans-4-(3-(4-Cyano-3-(trifluoromethyl)phenyl)-5,5-dimethyl-4-oxo-2-thioxoimidazolidin-1-yl)cyclohexyl)oxy)ethyl)-2,6-dimethylpiperazin-1-yl)-N-(4-((S)-3-ethyl-2,6-dioxopiperidin-3-yl)phenyl)acetamide hydrochloride]	100 to 10000	*** (30%<Y<80%)
C[C@@H]1CN(CCO[C@H]2CC[C@H](N3C(=S)N(c4cnc(C#N)c(Cl)c4)C(=O)C3(C)C)CC2)C[C@H](C)N1CC(=O)Nc1ccc(C2CCC(=O)NC2=O)cc1 (stereo partly drawn) [Cmpd 11, 2-((2R,6S)-4-(2-((trans-4-(3-(5-Chloro-6-cyanopyridin-3-yl)-5,5-dimethyl-4-oxo-2-thioxoimidazolidin-1-yl)cyclohexyl)oxy)ethyl)-2,6-dimethylpiperazin-1-yl)-N-(4-(2,6-dioxopiperidin-3-yl)phenyl)acetamide hydrochloride]	≤ 5	** (20%<Y≤30%)
C[C@@H]1CN(CCCO[C@H]2CC[C@H](N3C(=S)N(c4ccc(C#N)c(C(F)(F)F)c4)C(=O)C3(C)C)CC2)C[C@H](C)N1CC(=O)Nc1ccc(C2CCC(=O)NC2=O)cc1 (stereo partly drawn) [Cmpd 12, 2-((2R,6S)-4-(3-((trans-4-(3-(4-Cyano-3-(trifluoromethyl)phenyl)-5,5-dimethyl-4-oxo-2-thioxoimidazolidin-1-yl)cyclohexyl)oxy)propyl)-2,6-dimethylpiperazin-1-yl)-N-(4-(2,6-dioxopiperidin-3-yl)phenyl)acetamide hydrochloride]	≤ 5	** (20%<Y≤30%)
C[C@@H]1CN(CCCO[C@H]2CC[C@H](N3C(=S)N(c4cnc(C#N)c(C(F)(F)F)c4)C(=O)C3(C)C)CC2)C[C@H](C)N1CC(=O)Nc1ccc(C2CCC(=O)NC2=O)cc1 (stereo partly drawn) [Cmpd 13, 2-((2R,6S)-4-(3-((trans-4-(3-(6-Cyano-5-(trifluoromethyl)pyridin-3-yl)-5,5-dimethyl-4-oxo-2-thioxoimidazolidin-1-yl)cyclohexyl)oxy)propyl)-2,6-dimethylpiperazin-1-yl)-N-(4-(2,6-dioxopiperidin-3-yl)phenyl)acetamide hydrochloride]	≤ 5	** (20%<Y≤30%)
C[C@@H]1CN(CCCO[C@H]2CC[C@H](N3C(=S)N(c4ccc(C#N)c(Cl)c4)C(=O)C3(C)C)CC2)C[C@H](C)N1CC(=O)Nc1ccc(C2CCC(=O)NC2=O)cc1 (stereo partly drawn) [Cmpd 14, 2-((2R,6S)-4-(3-((trans-4-(3-(3-Chloro-4-cyanophenyl)-5,5-dimethyl-4-oxo-2-thioxoimidazolidin-1-yl)cyclohexyl)oxy)propyl)-2,6-dimethylpiperazin-1-yl)-N-(4-(2,6-dioxopiperidin-3-yl)phenyl)acetamide hydrochloride]	≤ 5	* (0<Y≤20%)
